Experimental data reported in patent EP2292225A1 (priority 1997, dated 1998).
Entries after “also recorded” stand apart in the source; their conditions may differ. Where two headings read alike, the source gives them in different places.

How the values were obtained:
[1] = system: Vascular smooth muscle (BO54) cells; format: cell-based, baboon
[2] = mouse, in vivo
[3] = system: left carotid artery; assay: Inter-arterial infusion of crystals after balloon trauma (scintillation, autoradiography, morphometry); format: in vivo, Sprague-Dawley rats; conditions: for present over the treated length of artery: 1 mg crystalline in 300 ml vehicle
Procedure: Another study employed twenty, male, Sprague-Dawley rats. The rats underwent balloon trauma to their left carotid artery, followed by inter-arterial infusion of a solution containing 1 mg crystalline cytochalasin B in […] vehicle (Hanks sterile salt solution with 0.5% Cremophor) or a diluent (saline) control. Animals were sacrificed immediately after infusion, and 2, 4, 7 and 14 days post-trauma and infusion. Post-sacrifice, the left and the right (control) carotid arteries were removed. Samples of arteries were obtained for quantitation of ^3H-cytochalasin B by oxidation and scintillation counting, histopathology, autoradiography and vascular morphometry. Histopathology documented uniform, circumferential balloon trauma in the arterial wall of the left carotid arteries.

[4] = system: left carotid artery
[5] = system: balloon traumatized rabbit carotid artery; format: in vivo
[6] = Chronic (seven days) intravenous toxicity study; format: in vivo, Sprauge-Dawley rats; conditions: 10080 min
Procedure: To determine the toxicity of chronic cytochalasin B administration, cytochalasin B was administered intravenously to Sprauge-Dawley rats for seven days (Table 12). Data regarding food consumption, body weights, hematology parameters, clinical chemistry parameters, coagulation profiles, organ weights, clinical observations, gross necropsy findings and histopathology were collected. […]

[7] = system: swine coronary arteries; assay: Dose-response study of balloon traumatized coronary arteries (morphometry); format: in vivo
[8] = system: swine coronary arteries; assay: Swine Coronary Artery Study: MIC catheter infusion after embolectomy or over-sized PTCA balloon trauma, morphometry at 4 weeks; format: in vivo
Procedure: Swine coronary arteries were also traumatized by embolectomy or over-sized PTCA balloon, and then 8-16 ml of cytochalasin B at 8.0 µg/ml was infused into the arterial wall with a MIC catheter to achieve a therapeutic dose. Controls included a diluent control and a traumatized untreated control, and all animals were sacrificed 4 weeks after intervention and coronary arteries were fixed by perfusion. Morphometry was performed on selected sections from proximal, treated and distal segments of coronary arteries (Table 15).
The diameter of, or the area within, the EEL of the artery can be compared to controls as an indicator of the degree of vascular remodeling. The lack of a statistically significant increase in luminal area may be due to increased sample variablility, increased neointimal formation, and/or increased degree of trauma.

[9] = 7 day intravenous toxicity study; format: in vivo, rats; conditions: 10 µg/ml four times a day for 7 days (800 µg/kg daily)
Procedure: To determine the metabolism of ^3H-cytochalasin B in human blood, ^3H-cytochalasin B (8 µg/ml) was dissolved in saline; 1:1 dilution of saline and human plasma; or 1:1 dilution of saline and human whole blood. […] Toxicity Studies. To determine the toxicity of cytochalasin B, rats (4 male and 4 female) were injected with 10 µg/ml cytochalasin B four times a day for 7 days (Table 11). Data regarding body weight changes, food consumption, food efficiency, hematology parameters, coagulation parameters, serum chemistry parameters, and gross necropsy findings were collected. […] There were no gross or microscopic changes detected in the heart to account for the elevation. Thus, daily administration of cytochalasin B to rats at a dose of 800 µg/kg (for a total injected dose of 5600 µg/kg) may have an effect on heart weight of female (but not male) rats. However, clotted blood was not routinely removed from the heart lumens prior to weighing the heart.

[10] = Biodistribution after i.p. injection (HPLC); format: in vivo, mice
Procedure: Biodistribution of Cytochalasin B. To determine the biodistribution of cytochalasin B, mice were injected (i.p.) with 50 mg/kg cytochalasin B. Control mice were injected with DMSO/Tween 20/carboxymethyl cellulose ("vehicle"). The mice were sacrificed at 3, 12, 24 and 72 hours after cytochalasin B or vehicle administration. Organs were removed, homogenized, extracted and the amount of cytochalasin B in tissues quantitated by HPLC. About 75% of the cytochalasin B remained in the peritoneal cavity or at the injection site.

[11] = Group 7a: 10% wt/wt, three weeks
[12] = 8.0 µg/ml infused with MIC catheter after embolectomy or over-sized PTCA balloon trauma, sacrificed 4 weeks after intervention, mean
[13] = 8-16 ml at 8.0 µg/ml, 4 weeks after intervention

SMILES: C=C1[C@@H](C)[C@H]2[C@H](Cc3ccccc3)NC(=O)[C@]23OC(=O)/C=C/[C@H](O)CCC[C@@H](C)C/C=C/[C@H]3[C@@H]1O [cytochalasin B]
- minimum effective dose (MED), DNA assay ([1]; 5 minute exposure): 10 µg/mL
- therapeutic range (area under the curve of ^3H-leucine assay greater than ^3H-thymidine assay) ([1]; 24 hour assays, 5% FBS): available therapeutic range
- minimum effective dose (MED), DNA synthesis assay ([1]; 24 hour exposure): 0.1 µg/mL
- levels in tissues [2]: very low levels
- maximal recovery from tissue extracts ([2]; iv, 3.5 mg/kg): 32%
- neointima formation compared to diluent treated rats ([3]; crystalline, inter-arterial infusion): no statistically significant reduction in neointima formation
- present over the treated length of artery ([3]; day 0): approximately 8 ug
- present over the treated length of artery ([3]; day 2): less than 2 ng
- morphometry compared to untreated control animals ([4]; 14 days, periadventitial crystals): no statistical difference from the controls
- toxicity at the surgical site ([4]; periadventitial crystals: cytochalasin B 7.8 - 11.8 mg/rat, taxol 3.4 - 6.5 mg/rat): significant toxicity at the surgical site
- intimal proliferation ([5]; Group 1: 20 mg in 1 g bovine collagen gel, bovine collagen mesh wrap, 1 week): no intimal or adventital proliferation
- intimal proliferation ([5]; Group 1: 20 mg in 1 g bovine collagen gel, bovine collagen mesh wrap, 2 weeks): minimal intimal and adventital proliferation
- intimal proliferation ([5]; Group 1: 20 mg in 1 g bovine collagen gel, bovine collagen mesh wrap, three weeks): no intimal proliferation
- intimal proliferation ([5]; Group 2: 30% wt/wt in silicone wrap, 3 weeks): moderate, irregular intimal proliferation
- intimal proliferation ([5]; Group 2: 30% wt/wt in silicone wrap, one week): no significant intimal or adventitial proliferation
- intimal proliferation ([5]; Group 2: 30% wt/wt in silicone wrap, two weeks): complete inhibition of intimal proliferation
- intimal proliferation ([5]; Group 3: 8 mg in 100 mg pluronic gel, bovine collagen mesh wrap, one week): mild intimal proliferation
- intimal proliferation ([5]; Group 3: 8 mg in 100 mg pluronic gel, bovine collagen mesh wrap, three weeks): moderate amount of intimal hyperplasia
- intimal proliferation ([5]; Group 3: 8 mg in 100 mg pluronic gel, bovine collagen mesh wrap, two weeks): mild, irregular intimal proliferation
- re-endothelization ([5]; Group 3: 8 mg in 100 mg pluronic gel, one week): approximately 30%
- intimal proliferation ([5]; Group 4: 100 mg (10% wt/wt) in 1 g silicone wrap, one week): no intimal proliferation
- intimal proliferation ([5]; Group 4: 100 mg (10% wt/wt) in 1 g silicone wrap, three weeks): minimal to no intimal proliferation
- intimal proliferation ([5]; Group 4: 100 mg (10% wt/wt) in 1 g silicone wrap, two weeks): minimal intimal proliferation
- re-endothelization ([5]; Group 4: 10% wt/wt silicone wrap, three weeks): < 10%
- intimal proliferation ([5]; Group 7a: 10% wt/wt, one and two weeks): no intimal proliferation for 2 weeks
- intimal proliferation [5, 11]: mild irregular intimal proliferation
- re-endothelized [5, 11]: 70%
- intimal proliferation ([5]; Group 8a: 10% wrap for 2 weeks, removed, evaluated 2 weeks later, animals 1254, 1255, 1256): none to mild; also recorded: mild to moderate intimal proliferation
- intimal proliferation ([5]; Group 10: 10 mg in 1 g silicone wrap (1% wt/wt) for 2 weeks, removed, 2 weeks later, animal 1304): moderate initmal proliferation
- re-endothelization ([5]; Group 10: 1% wrap for 2 weeks, removed, 2 weeks later, animal 1304): 100%
- re-endothelized ([5]; Group 11: 1% wrap for 2 weeks, removed, four weeks later, animal 1308): 100%
- intimal proliferation ([5]; Group 11: 1% wrap for 2 weeks, removed, four weeks later, animals 1307, 1308, 1309): moderate initmal proliferation; also recorded: moderate intimal proliferation; also recorded: marked intimal proliferation
- qualitative difference between test and control animals ([5]; Groups 10 and 11: 1% wt/wt silicone wrap for 2 weeks, removed, 2 or 4 weeks later): No significant difference
- dose without any indication of adverse effects or toxicity [6]: up to 600 µg/kg/day
- Mean % Lumen Area ([7]; 0.1 µg/mL, 4 Days Post Surgery): 97.0%
- Mean % Lumen Area ([7]; 1.5 µg/mL, 4 Days Post Surgery): 101.7%
- Mean % Lumen Area ([7]; 1.5 µg/mL, 21 Days Post Surgery): 100.9%
- Mean % Lumen Area ([7]; 10µg/mL, 4 Days Post Surgery): 103.9%
- Mean % Lumen Area ([7]; 10 µg/mL, 21 Days Post Surgery): 110.9%
- myocardial or arterial lesions (histology) ([7]; 0.1, 1.5 or 10.0 µg/ml): did not result in myocardial or arterial lesions
- Mean % Lumen Area ([7]; 0.1 µ/mL, 21 Days Post Surgery): 98.0%
- Neointimal Area [8, 12]: 1.56
- luminal area [8, 12]: 0.58
- arterial area bounded by the external elastic lamina [8, 13]: trend toward beneficial arterial remodeling
- luminal area [8, 13]: did not result in a statistically significant increase in luminal area
- Arterial Area ([8]; area bounded by external elastic lamina, 8.0 µg/ml infused with MIC catheter, sacrificed 4 weeks after intervention, mean): 1.80
- only parameter which suggested an adverse effect [9]: elevation of the mean relative heart weight in treated female animals
- organ with the highest amount ([10]; 50 mg/kg i.p.): highest amount of cytochalasin B was found in the liver
- remained in the peritoneal cavity or at the injection site ([10]; 50 mg/kg i.p.): About 75%
- maximum tolerated dose ([10]; may be administered every second day): 50 mg/kg
